Data: US11337950B2, “Biologically active cannabidiol analogs” (University of Mississippi, priority 2016, dated 2022)
Values joined by “and” are separate entries in the source; they are usually repeats but may differ in a detail not shown here. Equal entries are not always repeated.

Key:
[1] = Plasma and organ concentrations of CBD and CBD-Mono-VHS after IP administration (Example 22); format: in vivo; details: mice; for CBD Plasma Concentration, AVG. / Total CBD, Brain, AVG. / Total CBD, Kidney, AVG. / Total CBD, Liver, AVG. / Total CBD, Spleen, AVG. / Total CBD, Total, AVG. / CBD Plasma Concentration / Total CBD, Brain / Total CBD, Kidney / Total CBD, Liver / Total CBD, Spleen / Total CBD, Total: IP CBD-Mono-VHS; for CBD Plasma Concentration, AVG. / Total CBD, Brain, AVG. / Total CBD, Kidney, AVG. / Total CBD, Liver, AVG. / Total CBD, Spleen, AVG. / Total CBD, Total, AVG. / CBD Plasma Concentration / Total CBD, Brain / Total CBD, Kidney / Total CBD, Liver / Total CBD, Spleen / Total CBD, Total / CBD-Mono-Val-Mono-HS Plasma Concentration, AVG. / Total CBD-Mono-Val-Mono-HS, Brain, AVG. / Total CBD-Mono-Val-Mono-HS, Kidney, AVG. / Total CBD-Mono-Val-Mono-HS, Liver, AVG. / Total CBD-Mono-Val-Mono-HS, Spleen, AVG. / Total CBD-Mono-Val-Mono-HS, Total, AVG. / CBD-Mono-Val-Mono-HS Plasma Concentration / Total CBD-Mono-Val-Mono-HS, Brain / Total CBD-Mono-Val-Mono-HS, Kidney / Total CBD-Mono-Val-Mono-HS, Liver / Total CBD-Mono-Val-Mono-HS, Spleen / Total CBD-Mono-Val-Mono-HS, Total: 70 Minutes; for Total CBD, Total, AVG. / Total CBD, Total / Total CBD-Mono-Val-Mono-HS, Total, AVG. / Total CBD-Mono-Val-Mono-HS, Total: sum of the columns; for CBD Plasma Concentration / Total CBD, Brain / Total CBD, Kidney / Total CBD, Liver / Total CBD, Spleen / Total CBD, Total / CBD-Mono-Val-Mono-HS Plasma Concentration / Total CBD-Mono-Val-Mono-HS, Brain / Total CBD-Mono-Val-Mono-HS, Kidney / Total CBD-Mono-Val-Mono-HS, Liver / Total CBD-Mono-Val-Mono-HS, Spleen / Total CBD-Mono-Val-Mono-HS, Total: individual animals; for CBD-Mono-Val-Mono-HS Plasma Concentration, AVG. / Total CBD-Mono-Val-Mono-HS, Brain, AVG. / Total CBD-Mono-Val-Mono-HS, Kidney, AVG. / Total CBD-Mono-Val-Mono-HS, Liver, AVG. / Total CBD-Mono-Val-Mono-HS, Spleen, AVG. / Total CBD-Mono-Val-Mono-HS, Total, AVG. / CBD-Mono-Val-Mono-HS Plasma Concentration / Total CBD-Mono-Val-Mono-HS, Brain / Total CBD-Mono-Val-Mono-HS, Kidney / Total CBD-Mono-Val-Mono-HS, Liver / Total CBD-Mono-Val-Mono-HS, Spleen / Total CBD-Mono-Val-Mono-HS, Total: IP; for CBD-Mono-Val-Mono-HS Plasma Concentration / Total CBD-Mono-Val-Mono-HS, Brain / Total CBD-Mono-Val-Mono-HS, Kidney / Total CBD-Mono-Val-Mono-HS, Liver / Total CBD-Mono-Val-Mono-HS, Spleen / Total CBD-Mono-Val-Mono-HS, Total: listed as CBD-Mono-Val-Mono-HS
Method: CBD-Mono-VHS was administered intraperitoneally to mice at 2 doses (30 μg and 60 μg equivalent of CBD/mouse). Seventy minutes after dosing the animals (3 mice in each dose group), all animals were sacrificed. Blood, as well as organs (liver, spleen, kidney, and brain), were harvested for LC-MS/MS analysis of their content of both CBD and CBD-Mono-VHS.
Also shown is the concentration of CBD-Mono-VHS in the plasma 70 minutes after dosing.

[2] = Solubility of CBD and its analogs in Tocrisolve emulsion; format: physicochemical
Method: Formulations: 0.5% w/v CBD equivalent in Tocrisolve emulsion.
Tocrisolve composition: […] emulsion composed of a 1:4 ratio of soya oil/water that is emulsified with the block co-polymer Pluronic F68. Manufacturing process for the Tocrisolve emulsion: • Add accurately weighed amount of drug a glass vial. • Add required volume of Torcisolve blank emulsion to each vial • Vortex each vial for 5 minutes. • Sonicate each vial for 10 minutes. • Centrifuge each vial for 5 minutes at 9000 rpm at 25° C. • Collect the supernatant and analyze for CBD, CBD-Val Mono and CBD-Val-HS mono as applicable.

[3] = system: cisplatin-induced tactile allodynia; assay: Cisplatin-induced tactile allodynia model, electronic von Frey (Examples 23, 24); format: in vivo, C57BL/6 mice; details: Example 24, mice; for Doses with mean withdrawal thresholds significantly higher compared to vehicle: ps≤0.0001
[4] = Bioavailability of CBD-Mono-VHS from a lipophilic suppository (Example 16); format: in vivo; set-up: unit not given here; details: rats, rectal 7.5 mg, Lipophilic (Wecobee M) Suppository; for Plasma Concentration of CBD-Mono-VHS: individual animals
Method: CBD-Mono-Val-Mono-HS was formulated in Wecobee M suppository base (a triglyceride lipophilic base) at 75 mg/mL of melted base. The study was carried out in a cannulated rat model. Three animals were administered 100 μl. each of the semisolid formulation for a rectal dose of 7.5 mg CBD-Mono-VHS. This is followed by collection of blood samples (250 μl.) at each data point (0, 0.25, 0.5, 1, 2, 4, 6, and 24 hr.). The blood was centrifuged and the plasma was used for LC-MS/MS analysis.

C=C(C)C1CCC(C)=CC1c1c(O)cc(CCCCC)cc1OC(=O)[C@@H](NC(=O)CCC(=O)O)C(C)C (stereo partly drawn) [CBD-Mono-VHS, CBD-Mono-Valinate-Mono-Hemisuccinate]
Blood brain barrier passage, in words ([1]; IP 30 and 60 μg, 70 minutes): crosses the blood brain barrier | Organ concentrations after IP administration, in words ([1]; IP 30 and 60 μg, 70 minutes): high concentrations of the drug in all organs tested in a dose proportional manner | CBD Plasma Concentration, AVG. ([1]; High Dose (60 μg CBD/mouse)): 0.00 ng/mL | Total CBD, Brain, AVG. ([1]; High Dose (60 μg CBD/mouse)): 0.95 ng | Total CBD, Kidney, AVG. ([1]; High Dose (60 μg CBD/mouse)): 11.15 ng | Total CBD, Liver, AVG. ([1]; High Dose (60 μg CBD/mouse)): 295.11 ng | Total CBD, Spleen, AVG. ([1]; High Dose (60 μg CBD/mouse)): 64.42 ng | Total CBD, Total, AVG. ([1]; High Dose (60 μg CBD/mouse)): 371.63 ng | CBD Plasma Concentration ([1]; High Dose (60 μg CBD/mouse)): 0.00 ng/mL | Total CBD, Brain ([1]; High Dose (60 μg CBD/mouse)): 0.00 ng (2×) and 2.86 ng | Total CBD, Kidney ([1]; High Dose (60 μg CBD/mouse)): 18.50 ng and 14.96 ng and 0.00 ng | Total CBD, Liver ([1]; High Dose (60 μg CBD/mouse)): 319.91 ng and 195.66 ng and 369.75 ng | Total CBD, Spleen ([1]; High Dose (60 μg CBD/mouse)): 93.63 ng and 99.63 ng and 0.00 ng | Total CBD, Total ([1]; High Dose (60 μg CBD/mouse)): 432.04 ng and 310.25 ng and 372.61 ng | CBD Plasma Concentration, AVG. ([1]; Low Dose (30 μg CBD/mouse)): 0.00 ng/mL | Total CBD, Brain, AVG. ([1]; Low Dose (30 μg CBD/mouse)): 0.00 ng | Total CBD, Kidney, AVG. ([1]; Low Dose (30 μg CBD/mouse)): 2.343 ng | Total CBD, Liver, AVG. ([1]; Low Dose (30 μg CBD/mouse)): 47.62 ng | Total CBD, Spleen, AVG. ([1]; Low Dose (30 μg CBD/mouse)): 9.46 ng | Total CBD, Total, AVG. ([1]; Low Dose (30 μg CBD/mouse)): 59.42 ng | CBD Plasma Concentration ([1]; Low Dose (30 μg CBD/mouse)): 0.00 ng/mL | Total CBD, Brain ([1]; Low Dose (30 μg CBD/mouse)): 0.00 ng | Total CBD, Kidney ([1]; Low Dose (30 μg CBD/mouse)): 7.03 ng and 0.00 ng (2×) | Total CBD, Liver ([1]; Low Dose (30 μg CBD/mouse)): 41.82 ng and 19.61 ng and 81.42 ng | Total CBD, Spleen ([1]; Low Dose (30 μg CBD/mouse)): 10.04 ng and 18.35 ng and 0.00 ng | Total CBD, Total ([1]; Low Dose (30 μg CBD/mouse)): 58.89 ng and 37.96 ng and 81.42 ng | CBD-Mono-Val-Mono-HS Plasma Concentration, AVG. ([1]; High Dose (60 μg CBD/mouse)): 210.45 ng/mL | Total CBD-Mono-Val-Mono-HS, Brain, AVG. ([1]; High Dose (60 μg CBD/mouse)): 63.51 ng | Total CBD-Mono-Val-Mono-HS, Kidney, AVG. ([1]; High Dose (60 μg CBD/mouse)): 1193.95 ng | Total CBD-Mono-Val-Mono-HS, Liver, AVG. ([1]; High Dose (60 μg CBD/mouse)): 7558.89 ng | Total CBD-Mono-Val-Mono-HS, Spleen, AVG. ([1]; High Dose (60 μg CBD/mouse)): 771.76 ng | Total CBD-Mono-Val-Mono-HS, Total, AVG. ([1]; High Dose (60 μg CBD/mouse)): 9798.56 ng | CBD-Mono-Val-Mono-HS Plasma Concentration ([1]; High Dose (60 μg CBD/mouse)): 137.82 ng/mL and 100.53 ng/mL and 393.00 ng/mL | Total CBD-Mono-Val-Mono-HS, Brain ([1]; High Dose (60 μg CBD/mouse)): 46.59 ng and 42.45 ng and 101.50 ng | Total CBD-Mono-Val-Mono-HS, Kidney ([1]; High Dose (60 μg CBD/mouse)): 780.57 ng and 248.34 ng and 2552.93 ng | Total CBD-Mono-Val-Mono-HS, Liver ([1]; High Dose (60 μg CBD/mouse)): 8380.90 ng and 2882.40 ng and 11413.38 ng | Total CBD-Mono-Val-Mono-HS, Spleen ([1]; High Dose (60 μg CBD/mouse)): 711.31 ng and 477.40 ng and 1126.58 ng | Total CBD-Mono-Val-Mono-HS, Total ([1]; High Dose (60 μg CBD/mouse)): 10057.18 ng and 3751.113 ng and 15587.4 ng | CBD-Mono-Val-Mono-HS Plasma Concentration, AVG. ([1]; Low Dose (30 μg CBD/mouse)): 29.10 ng/mL | Total CBD-Mono-Val-Mono-HS, Brain, AVG. ([1]; Low Dose (30 μg CBD/mouse)): 9.18 ng | Total CBD-Mono-Val-Mono-HS, Kidney, AVG. ([1]; Low Dose (30 μg CBD/mouse)): 101.58 ng | Total CBD-Mono-Val-Mono-HS, Liver, AVG. ([1]; Low Dose (30 μg CBD/mouse)): 1170.01 ng | Total CBD-Mono-Val-Mono-HS, Spleen, AVG. ([1]; Low Dose (30 μg CBD/mouse)): 179.54 ng | Total CBD-Mono-Val-Mono-HS, Total, AVG. ([1]; Low Dose (30 μg CBD/mouse)): 1489.42 ng | CBD-Mono-Val-Mono-HS Plasma Concentration ([1]; Low Dose (30 μg CBD/mouse)): 32.08 ng/mL and 32.24 ng/mL and 22.97 ng/mL | Total CBD-Mono-Val-Mono-HS, Brain ([1]; Low Dose (30 μg CBD/mouse)): 13.48 ng and 8.26 ng and 5.81 ng | Total CBD-Mono-Val-Mono-HS, Kidney ([1]; Low Dose (30 μg CBD/mouse)): 88.05 ng and 84.14 ng and 132.55 ng | Total CBD-Mono-Val-Mono-HS, Liver ([1]; Low Dose (30 μg CBD/mouse)): 1431.98 ng and 534.11 ng and 1543.96 ng | Total CBD-Mono-Val-Mono-HS, Spleen ([1]; Low Dose (30 μg CBD/mouse)): 105.24 ng and 283.02 ng and 150.36 ng | Total CBD-Mono-Val-Mono-HS, Total ([1]; Low Dose (30 μg CBD/mouse)): 1670.831 ng and 941.765 ng and 1855.656 ng | Maximum solubility achieved in Tocrisolve ([2]; as the substance itself): 1.18 % w/v | Maximum solubility achieved in Tocrisolve (In terms of CBD) ([2]; in terms of CBD): (0.61) % w/v | Effect on cisplatin-induced tactile allodynia (eVF paw withdrawal), in words ([3]; 1.0 to 4.0 mg/kg (CBD equivalent) IP alone): dose-dependent attenuation of tactile allodynia that equal 2.5 mg/kg morphine at 3.0 and 4.0 mg/kg | Effect on cisplatin-induced tactile allodynia (eVF paw withdrawal), in words ([3]; 1.0 to 4.0 mg/kg (CBD equivalent) in combination with 0.1 mg/kg morphine, IP): shifted this dose response curve to the left where 2.0 mg/kg CBD-Mono-VHS attenuated tactile allodynia equal to that of 2.5 mg/kg morphine | Doses with mean withdrawal thresholds significantly higher compared to vehicle ([3]; IP alone): 2.0 to 4.0 mg/kg | Doses with mean withdrawal thresholds significantly higher compared to vehicle ([3]; IP, combination with 0.1 mg/kg morphine): 1.0 to 4.0 mg/kg | Plasma Concentration of CBD-Mono-VHS, Average ([4]; 0 hr): 0.0 | Plasma Concentration of CBD-Mono-VHS ([4]; 0 hr): 0.0 | Plasma Concentration of CBD-Mono-VHS, Average ([4]; 0.25 hr): 6.0 | Plasma Concentration of CBD-Mono-VHS ([4]; 0.25 hr): 7.1 (2×) and 3.9 | Plasma Concentration of CBD-Mono-VHS, Average ([4]; 0.5 hr): 11.1 | Plasma Concentration of CBD-Mono-VHS ([4]; 0.5 hr): 9.0 and 12.8 and 11.6 | Plasma Concentration of CBD-Mono-VHS, Average ([4]; 1 hr): 15.5 | Plasma Concentration of CBD-Mono-VHS ([4]; 1 hr): 14.1 and 13.8 and 18.5 | Plasma Concentration of CBD-Mono-VHS, Average ([4]; 2 hr): 20.6 | Plasma Concentration of CBD-Mono-VHS ([4]; 2 hr): 12.7 and 14.5 and 34.6 | Plasma Concentration of CBD-Mono-VHS, Average ([4]; 4 hr): 31.5 | Plasma Concentration of CBD-Mono-VHS ([4]; 4 hr): 22.0 and 27.5 and 45.1 | Plasma Concentration of CBD-Mono-VHS, Average ([4]; 6 hr): 39.8 | Plasma Concentration of CBD-Mono-VHS ([4]; 6 hr): 24.8 and 41.6 and 53.0 | Plasma Concentration of CBD-Mono-VHS, Average ([4]; 24 hr): 17.2 | Plasma Concentration of CBD-Mono-VHS ([4]; 24 hr): 7.3 and 44.3
